pIC50: −log10 of the molar value. Structures can show the parent of a compound that is named as a salt.
Tested on: Aβ production in SK-N-BE(2) neuroblastoma cells
Assay: Test Example 3: Aβ production inhibition in cell (Aβ40 ELISA, SK-N-BE(2))
Conditions: Homo sapiens, SKNBE2, 6 h, read-out: Test Example 3 IC50, SK-N-BE(2) cells, 6 hours, Aβ40 ELISA normalized by viability

Row | SMILES | pIC50
1 | NC1=NC2(CO1)c1cc(NC(=O)c3ccc(F)cn3)ccc1OCC21CC1 (stereo not drawn) [RP 31, N-(2″-aminodispiro[cyclopropane-1,3′-chromene-4′,4″-[1,3]oxazol]-6′-yl)-5-fluoropyridine-2-carboxamide] | 7.21
2 | CC1(C)Oc2ccc(-c3cncc(Cl)c3)cc2C2(COC(N)=N2)C12COC2 (stereo not drawn) [RP 173] | 7.14
3 | CCOc1cccc(-c2ccc3c(c2)C2(COC(N)=N2)C2(COC2)C2(CCC2)O3)c1 (stereo not drawn) [RP 131] | 5.49
4 | NC1=NC2(CO1)c1cc(Br)ccc1OC(CC1CC1)C21COC1 (stereo not drawn) [RP 16b] | 5.32
5 | NC1=NC2(CO1)c1cc(-c3cncc(OCC(F)(F)C(F)F)c3)ccc1OCC21CC1 (stereo not drawn) [RP 64] | 5.64
6 | CC1(C)Oc2ccc(NC(=O)c3ccc(Cl)cn3)cc2[C@@]2(COC(N)=N2)C12CC2 [Example 221] | 9.80
7 | NC1=NC2(CO1)c1cc(-c3cncc(OCC(F)F)c3)ccc1OCC21CC1 (stereo not drawn) [RP 59] | 7.12
8 | COc1cc(-c2ccc3c(c2)C2(COC(N)=N2)C2(COC2)C2(CCC2)O3)c(F)cn1 (stereo not drawn) [RP 122] | 5.96
9 | NC1=NC2(CO1)c1cc(-c3cccc(F)c3)ccc1OC1(CCC1)C21COC1 (stereo not drawn) [RP 125] | 6.24
10 | CC1(C)Oc2ccc(-c3cc(C#N)ccc3F)cc2C2(COC(N)=N2)C12COC2 (stereo not drawn) [RP 170] | 6.40
11 | CC#Cc1cncc(-c2ccc3c(c2)C2(COC(N)=N2)C2(CCC2)CO3)c1 (stereo not drawn) [RP 113] | 6.33
12 | NC1=NC2(CO1)c1cc(-c3cccnc3)ccc1OC1(CCC1)C21COC1 (stereo not drawn) [RP 209] | 6.08
13 | COc1cccc(-c2ccc3c(c2)C2(COC(N)=N2)C2(COC2)C2(CCC2)O3)c1F (stereo not drawn) [RP 137] | 6.08
14 | NC1=NC2(CO1)c1cc(-c3cccnc3F)ccc1OCC21CC1 (stereo not drawn) [RP 103] | 6.35
15 | CC1(C)Oc2ccc(Br)cc2C2(CSC(N)=N2)C12COC2 (stereo not drawn) [RP 42] | 5.23
16 | N#Cc1ccc(C(=O)Nc2ccc3c(c2)C2(COC(N)=N2)C2(CC2)CO3)nc1 (stereo not drawn) [RP 196] | 7.28
17 | CC#Cc1cncc(-c2ccc3c(c2)C2(COC(N)=N2)C2(COC2)CO3)n1 (stereo not drawn) [RP 22] | 5.54
18 | N#Cc1ncccc1-c1ccc2c(c1)C1(COC(N)=N1)C1(COC1)C1(CCC1)O2 (stereo not drawn) [RP 115, 3-(2″-aminotrispiro[cyclobutane-1,2′-chromene-4′,4″-[1,3]oxazole-3′,3′″-oxetan]-6′-yl)pyridine-2-carbonitrile] | 5.96
19 | NC1=NC2(CO1)c1cc(Nc3ncccc3Cl)ccc1OCC21COC1 (stereo not drawn) [RP 43, 6′-(3-chloropyridin-2-yl)aminodispiro[1,3-oxazole-4,4′-chromene-3′,3″-oxetane]-2-amine] | 5.85
20 | NC1=NC2(CO1)c1cc(-c3cncc(C(F)(F)F)c3)ccc1OC1(CCC1)C21COC1 (stereo not drawn) [RP 99] | 5.72
21 | COCc1cnn(-c2ccc3c(c2)C2(COC(N)=N2)C2(COC2)C2(CCC2)O3)c1 (stereo not drawn) [RP 4] | 5.14
22 | CC#Cc1cncc(-c2ccc3c(c2)C2(COC(N)=N2)C2(CC2)CO3)c1 (single isomer, unassigned) [RP 52a, 6′-[5-(prop-1-yn-1-yl)pyridin-3-yl]dispiro[cyclopropane-1,3′-chromene-4′,4″-[1,3]oxazol]-2″-amine] | 7.12
23 | CC1(C)Oc2ccc(NC(=O)c3cnc(C(F)F)cn3)cc2[C@@]2(COC(N)=N2)C12CC2 [Example 224, N-[(4′R)-2″-amino-2′,2′-dimethyldispiro[cyclopropane-1,3′-chromene-4′,4″-[1,3]oxazol]-6′-yl]-5-(difluoromethyl)pyrazine-2-carboxamide] | 9.20
24 | NC1=NC2(CO1)c1cc(-c3cncc(Cl)c3)ccc1OCC21CC1 (stereo not drawn) [RP 107] | 6.34

Row | SMILES | pIC50
25 | CC#Cc1cncc(-c2ccc3c(c2)C2(COC(N)=N2)C2(COC2)C(CC)O3)c1 (stereo not drawn) [RP 86] | 7.24
26 | COc1ccc(F)c(-c2ccc3c(c2)C2(COC(N)=N2)C2(COC2)CO3)c1 (stereo not drawn) [RP 33] | 6.02
27 | NC1=NC2(CO1)c1cc(-c3cncc(C(F)F)c3)ccc1OC1(CCC1)C21COC1 (stereo not drawn) [RP 118] | 6.00
28 | NC1=NC2(CO1)c1cc(C3=CCCCC3)ccc1OC1(CCC1)C21COC1 (stereo not drawn) [RP 135] | 5.74
29 | CC#Cc1cncc(-c2ccc3c(c2)C2(COC(N)=N2)C2(COC2)C2(CCC2)O3)c1 (stereo not drawn) [RP 109] | 7.32
30 | CC#Cc1cncc(-c2ccc3c(c2)C2(COC(N)=N2)C2(COC2)C(CCC(F)(F)F)O3)c1 (stereo not drawn) [RP 96] | 7.66
31 | CC#Cc1cncc(-c2ccc3c(c2)C2(CSC(N)=N2)C2(COC2)CO3)c1 (stereo not drawn) [RP 68] | 6.30
32 | CC1(C)Oc2ccc(-c3cccc4cnccc34)cc2C2(COC(N)=N2)C12COC2 (stereo not drawn) [RP 180] | 6.31
33 | NC1=NC2(CO1)c1cc(-c3cncnc3)ccc1OCC21CC1 (stereo not drawn) [RP 100] | 6.60
34 | CCOc1cc(F)cc(-c2ccc3c(c2)C2(COC(N)=N2)C2(COC2)C2(CCC2)O3)c1 (stereo not drawn) [RP 133] | 5.55
35 | CC1(C)Oc2ccc(-c3c(F)ccc(F)c3F)cc2C2(COC(N)=N2)C12COC2 (stereo not drawn) [RP 185] | 6.12
36 | COCC#Cc1cncc(-c2ccc3c(c2)C2(COC(N)=N2)C2(COC2)CO3)c1 (stereo not drawn) [RP 19, 6′-[5-(3-methoxyprop-1-yn-1-yl)pyridin-3-yl]dispiro[1,3-oxazole-4,4′-chromene-3′,3″-oxetan]-2-amine] | 6.37
37 | CC1(C)Oc2ccc(-c3ccc4[nH]ncc4c3)cc2C2(COC(N)=N2)C12COC2 (stereo not drawn) [RP 177] | 5.82
38 | NC1=NC2(CO1)c1cc(-c3cncnc3)ccc1OCC21CCCO1 (stereo not drawn) [RP 97] | 5.59
39 | NC1=NC2(CO1)c1cc(-c3cncc(OC(F)F)c3)ccc1OCC21CC1 (stereo not drawn) [RP 60] | 6.80
40 | COc1cccc(-c2ccc3c(c2)C2(COC(N)=N2)C2(COC2)C2(CCC2)O3)c1 (stereo not drawn) [RP 126] | 5.92
41 | NC1=NC2(CO1)c1cc(-c3cncnc3)ccc1OC(Cc1ccccc1)C21COC1 (stereo not drawn) [RP 200] | 7.59
42 | COc1cnc(C(=O)Nc2ccc3c(c2)[C@@]2(COC(N)=N2)C2(CC2)C(C)(C)O3)cn1 [Example 223, N-[(4′R)-2″-amino-2′,2′-dimethyldispiro[cyclopropane-1,3′-chromene-4′,4″-[1,3]oxazol]-6′-yl]-5-me thoxypyrazine-2-carboxamide] | 8.51
43 | CC1(C)Oc2ccc(-c3ccc4nonc4c3)cc2C2(COC(N)=N2)C12COC2 (stereo not drawn) [RP 178] | 6.09
44 | N#C/C=C/c1cccc(-c2ccc3c(c2)C2(COC(N)=N2)C2(COC2)C2(CCC2)O3)c1 (stereo not drawn) [RP 132] | 5.92
45 | NC1=NC2(CO1)c1cc(-c3cncnc3)ccc1OCC21CC(F)(F)C1 (stereo not drawn) [RP 208] | 5.21
46 | CC1(C)Oc2ccc(-c3cccc(Cl)c3)cc2C2(COC(N)=N2)C12COC2 (stereo not drawn) [RP 139] | 6.85
47 | CC1(C)Oc2ccc(-c3cncc(Cl)n3)cc2C2(COC(N)=N2)C12COC2 (stereo not drawn) [RP 150] | 6.35
48 | CC1(C)Oc2ccc(-c3cncnc3)cc2C2(CSC(N)=N2)C12COC2 (stereo not drawn) [RP 54, 2′,2′-dimethyl-6′-(pyrimidin-5-yl)dispiro[oxetane-3,3′-chromene-4′,4″-[1,3]thiazol]-2″-amine hydrochloride] | 7.10

Row | SMILES | pIC50
49 | CC1(C)Oc2ccc(-c3cc(F)cnc3Cl)cc2C2(COC(N)=N2)C12COC2 (stereo not drawn) [RP 153] | 6.89
50 | NC1=NC2(c3cc(-c4cncnc4)ccc3OCC23CC3)c2cccc(F)c21 (stereo not drawn) [RP 199] | 6.62
51 | CC1(C)Oc2ccc(-c3cc(F)cc(F)c3)cc2C2(COC(N)=N2)C12COC2 (stereo not drawn) [RP 147] | 6.77
52 | CC1(C)Oc2ccc(NC(=O)c3ccc(Br)cn3)cc2[C@@]2(COC(N)=N2)C12COC2 [Example 219] | 8.66
53 | NC1=NC2(CO1)c1cc(-c3cccnc3F)ccc1OC1(CCC1)C21COC1 (stereo not drawn) [RP 71] | 6.96
54 | CC#Cc1cc(-c2ccc3c(c2)C2(COC(N)=N2)C2(COC2)CO3)ncn1 (stereo not drawn) [RP 21] | 6.39
55 | NC1=NC2(CO1)c1cc(-c3cncnc3)ccc1OC1(CCCC1)C21COC1 (stereo not drawn) [RP 85] | 7.11
56 | CCOc1cncc(-c2ccc3c(c2)C2(COC(N)=N2)C2(CC2)CO3)c1 (stereo not drawn) [RP 106] | 6.80
57 | CC(C)Cc1ccc2c(c1)C1(COC(N)=N1)C1(COC1)C1(CCC1)O2 (stereo not drawn) [RP 46, 6′-isobutyltrispiro[cyclobutane-1,2′-chromene-4′,4″-[1,3]oxazole-3′,3′″-oxetan]-2″-amine] | 5.85
58 | C#Cc1cncc(-c2ccc3c(c2)C2(COC(N)=N2)C2(COC2)CO3)c1 (stereo not drawn) [RP 23] | 6.05
59 | CNC(=O)c1cc(F)cc(-c2ccc3c(c2)C2(COC(N)=N2)C2(COC2)C(C)(C)O3)c1 (stereo not drawn) [RP 171] | 5.51
60 | CC1(C)Oc2ccc(-c3cccc4cccnc34)cc2C2(COC(N)=N2)C12COC2 (stereo not drawn) [RP 179] | 5.85
61 | N#Cc1cncc(-c2ccc3c(c2)C2(COC(N)=N2)C2(COC2)C2(CCC2)O3)c1 (stereo not drawn) [RP 120] | 5.64
62 | CC1(C)Oc2ccc(-c3cccc4[nH]ncc34)cc2C2(COC(N)=N2)C12COC2 (stereo not drawn) [RP 176] | 6.07
63 | NC1=NC2(CO1)c1cc(-c3cccc(F)c3F)ccc1OC1(CCC1)C21COC1 (stereo not drawn) [RP 138] | 5.82
64 | CC1(C)Oc2ccc(-c3ccc4[nH]ccc4c3)cc2C2(COC(N)=N2)C12COC2 (stereo not drawn) [RP 174, 6′-(1H-indol-5-yl)-2′,2′-dimethyldispiro[1,3-oxazole-4,4′-chromene-3′,3″-oxetan]-2-amine] | 5.47
65 | NC1=NC2(CO1)c1cc(-c3cncnc3)c(F)cc1OCC21CC1 (stereo not drawn) [RP 102] | 6.62
66 | NC1=NC2(CO1)c1cc(-c3cncnc3)ccc1OC1(CCC1)C21COC1 (stereo not drawn) [RP 5] | 6.23
67 | C[C@@H]1Oc2ccc(-c3cccnc3F)cc2[C@@]2(COC(N)=N2)C12COC2 (racemic) [RP 79] | 6.35
68 | CC#Cc1cncc(-c2ccc3c(c2)C2(COC(N)=N2)C2(CC2)CO3)c1 (stereo not drawn) [RP 111] | 6.85
69 | CCc1cncc(-c2ccc3c(c2)C2(COC(N)=N2)C2(CC2)CO3)c1 (stereo not drawn) [RP 63] | 5.48
70 | NC1=NC2(CO1)c1cc(-c3cncnc3)ccc1OC(CC1CC1)C21COC1 (stereo not drawn) [RP 204] | 6.62
71 | CC#Cc1cc(-c2ccc3c(c2)C2(COC(N)=N2)C2(COC2)CO3)ccn1 (stereo not drawn) [RP 20] | 6.24
72 | COc1cncc(-c2ccc3c(c2)C2(COC(N)=N2)C2(COC2)C2(CCC2)O3)c1 (stereo not drawn) [RP 72] | 7.17
